For this test, the target named is T1, Btk (Homo sapiens, UniProt Q06187).
T1 construct: purified from insect cells as a full-length construct containing a N-terminal 6×-His tag; 6xHis (N); host or cells: insect cells (baculovirus Sf21 in Method B)
As to the kind of experiment: Btk in vitro inhibitory activity (one of Methods A, B, C). It is filed as biochemical. The note with it: determined in one of three in vitro assays (Examples 125-127). How it is done:
The Btk IC50s of compounds disclosed herein was determined in one of the three in vitro assays described in Examples 125-127.
Btk kinase activity was determined using a time-resolved fluorescence resonance energy transfer (TR-FRET) methodology. Measurements were performed in a reaction volume of 50 μL using 96-well assay plates. […] The reaction was quenched by the addition of 1.2 equivalents of EDTA (relative to divalent cation) in 25 μL of 1× Lance buffer (Perkin-Elmer). Streptavidin-APC (Perkin-Elmer) and Eu-labeled p-Tyr100 antibody (Perkin-Elmer) in 1× Lance buffer were added in a 25 μL volume to give final concentrations of 100 nM and 2.5 nM, respectively, and the mixture was allowed to incubate for one hour. The TR-FRET signal was measured on a multimode plate reader with an excitation wavelength (λEx) of 330 nm and detection wavelengths (λEm) of 615 and 665 nm. Activity was determined by the ratio of the fluorescence at 665 nm to that at 615 nm. For each compound, enzyme activity was measured at various concentrations of compound. Negative control reactions were performed in the absence of inhibitor in replicates of six, and two no-enzyme controls were used to determine baseline fluorescence levels Inhibition constants, Ki(app), were obtained using the program BatchKi (Kuzmic et al. (2000), Anal. Biochem. 286:45-50). IC50s were obtained according to the equation: IC50={Ki(app)/(1+[ATP]/Km^ATP)}+[E]total/2; For all kinases, [ATP]=Km^ATP, [Btk]total=0.5 nM and [Lck]total=6 nM.
Kinase activity is measured in vitro using electrophoretic mobility shift assay. The kinase reactions are assembled in a total volume of 25 μL in 384 well plates. […] The reaction is incubated for one hour and is quenched by the addition of 45 μL of termination buffer (100 mM HEPES, pH7.5, 0.01% Triton X-100, 30 mM EDTA). The terminated reactions are analyzed using 12 channel LabChip® 3000 microfluidic detection instrument (Caliper Life Sciences). The enzymatic phosphorylation of the peptide results in a change in net charge, enabling electrophoretic separation of product from substrate peptide. As substrate and product peptides are separated, two peaks of fluorescence are observed. Change in the relative fluorescence intensity of the substrate and product peaks is the parameter measured, reflecting enzyme activity. In the presence of an inhibitor, the ratio between product and substrate is altered: the signal of the product decreases, while the signal of the substrate increases.
Activity in each sample is determined as the product to sum ratio (PSR): P/(S+P), where P is the peak height of the product peptide and S is the peak height of the substrate peptide. For each compound, enzyme activity is measured at various concentrations (12 concentrations of compound spaced by 3× dilution intervals). Negative control samples (0%-inhibition in the absence of inhibitor) and positive control samples (100%-inhibition, in the presence of 20 mM EDTA) are assembled in replicates of four and are used to calculate %-inhibition values for each inhibitor at each concentration. Percent inhibition (Pinh) is determined using following equation: Pinh=(PSR0%−PSRinh)/(PSR0%−PSR100%)*100, where PSRinh is the product sum ratio in the presence of inhibitor, PSR0% is the average product sum ration in the absence of inhibitor and PSR100% is the average product sum ratio in 100%-inhibition control samples;
The IC50 values of inhibitors are determined by 4 parameter sigmoidal dose-response model fitting of the inhibition curves (Pinh versus inhibitor concentration) using XLfit 4 software.
Human Btk kinase (Genbank accession # NP_000052) was purified from insect cells as a full-length construct containing a N-terminal 6×-His tag. Btk kinase activity was determined using a radiometric filter binding assay. Measurements are performed in a low reaction volume 384-well assay plates. […]

Molecules are shown by their SMILES. pIC50: −log10 of the molar value.

T1 sequence (Q06187 whole entry): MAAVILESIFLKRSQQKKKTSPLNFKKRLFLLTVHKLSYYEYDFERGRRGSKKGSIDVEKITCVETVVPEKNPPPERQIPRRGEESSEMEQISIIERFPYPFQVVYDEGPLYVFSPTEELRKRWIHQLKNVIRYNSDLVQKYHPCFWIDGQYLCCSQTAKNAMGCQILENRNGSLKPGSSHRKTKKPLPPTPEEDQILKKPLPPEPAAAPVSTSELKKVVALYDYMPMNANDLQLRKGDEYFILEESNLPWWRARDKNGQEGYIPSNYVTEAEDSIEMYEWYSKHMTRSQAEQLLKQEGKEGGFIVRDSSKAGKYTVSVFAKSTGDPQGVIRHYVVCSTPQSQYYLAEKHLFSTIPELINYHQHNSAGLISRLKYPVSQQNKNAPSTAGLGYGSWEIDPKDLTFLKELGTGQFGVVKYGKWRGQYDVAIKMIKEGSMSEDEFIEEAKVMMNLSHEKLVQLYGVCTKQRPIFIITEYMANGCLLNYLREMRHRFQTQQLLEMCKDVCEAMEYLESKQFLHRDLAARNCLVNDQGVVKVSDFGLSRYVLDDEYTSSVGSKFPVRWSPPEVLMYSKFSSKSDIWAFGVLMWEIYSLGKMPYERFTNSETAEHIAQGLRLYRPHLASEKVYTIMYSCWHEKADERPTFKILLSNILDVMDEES

For orientation: pIC50 means the negative decadic logarithm of the IC50, by convention in mol/L. Higher therefore signals a low IC50. Regarding `COc1cc(-c2nn(-c3cccc(N(C)C(=O)/C=C/CN(C)C)n3)c3ncnc(N)c23)ccc1C` [Example 30], the pIC50 was greater than 7.00.
The result for `CN(C)C/C=C/C(=O)N(C)c1cccc(-n2nc(-c3ccc(Cl)cc3)c3c(N)ncnc32)n1` [Example 31] reads greater than 7.00; that for `CN(C(=O)/C=C/CN(C)C1CC1)c1ccc(-n2nc(-c3ccc(Cl)cc3)c3c(N)ncnc32)cc1` [Example 32], greater than 7.00.
Molecule `CCN(C/C=C/C(=O)N(C)c1ccc(-n2nc(-c3ccc(Cl)cc3)c3c(N)ncnc32)cc1)C1CC1` [Example 33] gave a pIC50 greater than 7.00.
Molecule `CN(C(=O)/C=C/CN(C)C1CCC1)c1ccc(-n2nc(-c3ccc(Cl)cc3)c3c(N)ncnc32)cc1` [Example 34] gave a negative-log IC50 (pIC50) greater than 7.00.
As for `COc1cc(-c2nn(-c3cccc(NC(=O)/C=C/CN(C)C)c3)c3ncnc(N)c23)ccc1C` [Example 35], the figure is greater than 7.00; as for `C=CC(=O)N1CC[C@@H](n2nc(-c3ccc(Cl)cc3)c3c(N)ncnc32)C1` [Example 36], greater than 7.00; as for `C=CC(=O)N(C)c1cccc(-n2nc(-c3ccc(C)c(OC)c3)c3c(N)ncnc32)c1` [Example 37], greater than 7.00.
On to `COc1cc(-c2nn(-c3cccc(N(C)C(=O)/C=C/CN(C)C)c3)c3ncnc(N)c23)ccc1C` [Example 38], for which the pIC50 is greater than 7.00.
As for `COc1cc(-c2nn(-c3ccc(N(C)C(=O)/C=C/CN(C)C4CCC4)cc3)c3ncnc(N)c23)ccc1C` [Example 40], the figure is greater than 7.00; as for `COCCOc1ccc(-n2nc(-c3ccc(C)c(OC)c3)c3c(N)ncnc32)cc1NC(=O)/C=C/CN(C)C` [Example 41], greater than 7.00.
`COc1cc(-c2nn(-c3cccc(N(C)C(=O)/C=C/CN4CCOCC4)c3)c3ncnc(N)c23)ccc1C` [Example 44] had a pIC50 greater than 7.00.
As for `COc1cc(-c2nn([C@@H]3CCCN(C(=O)/C=C/CN(C)C)C3)c3ncnc(N)c23)ccc1C` [Example 45], the figure is greater than 7.00; as for `CN(C)C/C=C/C(=O)N1CCC[C@@H](n2nc(-c3ccc(Cl)cc3)c3c(N)ncnc32)C1` [Example 46], greater than 7.00.
The result for `CN(C)C/C=C/C(=O)N1CCC(n2nc(-c3ccc(Cl)cc3)c3c(N)ncnc32)CC1` [Example 47] reads greater than 7.00; that for `COc1cc(-c2nn(CC3CCN(C(=O)/C=C/CN(C)C)CC3)c3ncnc(N)c23)ccc1C` [Example 48], greater than 7.00.
As for `COc1cc(-c2nn(C[C@@H]3CCCN3C(=O)/C=C/CN(C)C)c3ncnc(N)c23)ccc1C` [Example 49], the figure is greater than 7.00; as for `COc1cc(-c2nn(C[C@H]3CCCN3C(=O)/C=C/CN(C)C)c3ncnc(N)c23)ccc1C` [Example 50], greater than 7.00; as for `CN(C)C/C=C/C(=O)N(C)c1cc(-n2nc(-c3ccc(Cl)cc3)c3c(N)ncnc32)ccc1F` [Example 51], greater than 7.00.
In turn, `COc1cc(-c2nn(-c3ccc(N(C)C(=O)/C=C/CN(C)C)c(Cl)c3)c3ncnc(N)c23)ccc1C` [Example 52] showed a negative-log IC50 (pIC50) greater than 7.00.
`COc1cc(-c2nn(C3CCN(C(=O)/C=C/CN(C)C)CC3)c3ncnc(N)c23)ccc1C` [Example 53] showed a pIC50 greater than 7.00.
In the case of `COc1cc(-c2nn([C@@H]3CCN(C(=O)/C=C/CN(C)C)C3)c3ncnc(N)c23)c(F)cc1C` [Example 54], the pIC50 was greater than 7.00.
Molecule `COc1cc(-c2nn(-c3cccc(N(C)C(=O)/C=C/CN(C)C)c3)c3ncnc(N)c23)c(F)cc1C` [Example 55] gave a pIC50 greater than 7.00.
The result for `COc1cc(-c2nn(C3CCN(C(=O)/C=C/CN(C)C4CC4)CC3)c3ncnc(N)c23)ccc1C` [Example 57] reads greater than 7.00; that for `COc1cc(-c2nn([C@H]3CC[C@@H](NC(=O)/C=C/CN(C)C4CC4)CC3)c3ncnc(N)c23)ccc1C` [Example 59], greater than 7.00.
The result for `COc1cc(-c2nn([C@@H]3CCN(C(=O)/C=C/CN(C)C4CC4)C3)c3ncnc(N)c23)ccc1C` [Example 60] reads greater than 7.00; that for `CN(C/C=C/C(=O)N1CC[C@@H](n2nc(-c3ccc(Cl)cc3)c3c(N)ncnc32)C1)C1CC1` [Example 61], greater than 7.00; that for `COc1cc(-c2nn(-c3ccc(N(C)C(=O)/C=C/CN(C)C)c(F)c3)c3ncnc(N)c23)ccc1C` [Example 62], greater than 7.00.
The result for `COc1cc(-c2nn(-c3ccc(F)c(N(C)C(=O)/C=C/CN(C)C)c3)c3ncnc(N)c23)ccc1C` [Example 63] reads greater than 7.00; that for `COc1cc(-c2nn(C3CN(C(=O)/C=C/CN(C)C)C3)c3ncnc(N)c23)ccc1C` [Example 64], greater than 7.00.
With `CN(C)C/C=C/C(=O)N1CC(n2nc(-c3ccc(Cl)cc3)c3c(N)ncnc32)C1` [Example 65], the pIC50 is greater than 7.00.
On to `CN(C/C=C/C(=O)N1CC(n2nc(-c3ccc(Cl)cc3)c3c(N)ncnc32)C1)C1CC1` [Example 66], for which the pIC50 was greater than 7.00.
`COc1cc(-c2nn(C3CN(C(=O)/C=C/CN(C)C4CC4)C3)c3ncnc(N)c23)ccc1C` [Example 67] had a negative logarithm of the IC50 (pIC50) greater than 7.00.
As for `COc1cc(-c2nn(-c3ccc(N(C)C(=O)/C=C/CN(C)C4CC4)c(F)c3)c3ncnc(N)c23)ccc1C` [Example 68], the figure is greater than 7.00.
The result for `CN(C(=O)/C=C/CN(C)C1CC1)c1cc(-n2nc(-c3ccc(Cl)cc3)c3c(N)ncnc32)ccc1F` [Example 69] reads greater than 7.00; that for `COCCOc1ccc(-n2nc(-c3ccc(C)c(OC)c3)c3c(N)ncnc32)cc1N(C)C(=O)/C=C/CN(C)C` [Example 70], greater than 7.00; that for `COc1cc(-c2nn(C[C@H]3CCN(C(=O)/C=C/CN(C)C)C3)c3ncnc(N)c23)ccc1C` [Example 72], greater than 7.00.
The result for `COc1cc(-c2nn([C@H]3CC[C@@H](N(C)C(=O)/C=C/CN(C)C)CC3)c3ncnc(N)c23)ccc1C` [Example 73] reads greater than 7.00.
As for `COc1cc(-c2nn(-c3ccc(F)c(N(C)C(=O)/C=C/CN(C)C4CC4)c3)c3ncnc(N)c23)ccc1C` [Example 76], the pIC50 was greater than 7.00.
The result for `COc1cc(-c2nn(-c3ccc(OCC(C)(C)O)c(N(C)C(=O)/C=C/CN(C)C)c3)c3ncnc(N)c23)ccc1C` [Example 77] reads greater than 7.00; that for `C=CC(=O)N1CCC(n2nc(-c3ccc(C)c(OC)c3)c3c(N)ncnc32)CC1` [Example 78], greater than 7.00; that for `C=CC(=O)N1CC(n2nc(-c3ccc(C)c(OC)c3)c3c(N)ncnc32)C1` [Example 79], greater than 7.00.
As for `C=CC(=O)N1CCC(n2nc(-c3ccc(Cl)cc3)c3c(N)ncnc32)CC1` [Example 80], the figure is greater than 7.00; as for `C=CC(=O)N1CC(n2nc(-c3ccc(Cl)cc3)c3c(N)ncnc32)C1` [Example 81], greater than 7.00.
As for `COc1cc(-c2nn(-c3ccc(N(C)S(=O)(=O)/C=C/CN(C)C)cc3)c3ncnc(N)c23)ccc1C` [Example 82], the negative-log IC50 (pIC50) was greater than 7.00.
For `C=CC(=O)N1CC[C@@H](n2nc(-c3ccc(C)c(OC)c3)c3c(N)ncnc32)C1` [Example 83], the negative-log IC50 (pIC50) is greater than 7.00.
Take `C=CC(=O)N1CCC[C@@H](n2nc(-c3ccc(C)c(OC)c3)c3c(N)ncnc32)C1` [Example 84]: the pIC50 is greater than 7.00.
Molecule `C=CC(=O)N1CCC[C@@H](n2nc(-c3ccc(Cl)cc3)c3c(N)ncnc32)C1` [Example 85] showed a negative logarithm of the IC50 (pIC50) greater than 7.00.
As for `C=CC(=O)N1CC[C@@H](n2nc(-c3ccc(F)c(OC)c3)c3c(N)ncnc32)C1` [Example 85b], the figure is greater than 7.00.

The values above are taken from patent US9546172B2, “Pyrazolo[3,4-d]pyrimidine and pyrazolo[2,3-d]pyrimidine compounds as kinase inhibitors” (Pharmacyclics LLC, priority 2011, dated 2017).
